In ChEMBL document CHEMBL1201862, “PubChem BioAssay data set” (2004):
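How tested: cells in 96-well plates exposed to compound for 48 hours at five concentrations. GI50 = concentration required for 50% inhibition of growth.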 The source made the active and inactive calls. Rule as the data show it: active = GI50 up to about 1.1 µM and inactive = higher.

Columns and labels:
Assay in all cases: inhibition of tumour cell growth, NCI panel, 48 h
Hs-578T = tested on: Hs-578T
SW-620 = tested on: SW-620
SN12C = tested on: SN12C
MCF7 = tested on: MCF7
OVCAR-8 = tested on: OVCAR-8
SK-MEL-28 = tested on: SK-MEL-28
PC-3 = tested on: PC-3
RPMI-8226 = tested on: RPMI-8226
UACC-257 = tested on: UACC-257
NCI-H226 = tested on: NCI-H226
MOLT-4 = tested on: MOLT-4
KM12 = tested on: KM12
RXF 393 = tested on: RXF 393
SNB-19 = tested on: SNB-19
NCI-H522 = tested on: NCI-H522
NCI-H23 = tested on: NCI-H23
786-0 = tested on: 786-0
K562 = tested on: K562
A549 = tested on: A549
SK-MEL-2 = tested on: SK-MEL-2

Measured: GI50

O=c1cc(O)c2ccccc2o1 [4-HYDROXYCOUMARINS]
inactive: Hs-578T > 100 µM | SW-620 > 100 µM | SN12C > 100 µM | MCF7 > 100 µM | OVCAR-8 > 100 µM | SK-MEL-28 > 100 µM | PC-3 > 100 µM | RPMI-8226 > 100 µM | UACC-257 > 100 µM | NCI-H226 > 100 µM | MOLT-4 > 100 µM | KM12 > 100 µM | RXF 393 > 100 µM | SNB-19 > 100 µM | NCI-H522 > 100 µM | NCI-H23 > 100 µM | 786-0 > 100 µM | K562 > 100 µM | A549 > 100 µM

Cc1c[nH]c(C(=O)O)c1-c1cccn1-c1ccc(Cl)cc1[N+](=O)[O-]
inactive: Hs-578T > 100 µM | SW-620 > 100 µM | SN12C > 100 µM | MCF7 69.7 µM | OVCAR-8 61.7 µM | SK-MEL-28 > 100 µM | PC-3 49.9 µM | UACC-257 > 100 µM | NCI-H226 92.3 µM | MOLT-4 63.1 µM | KM12 76.6 µM | RXF 393 83 µM | SK-MEL-2 > 100 µM | NCI-H522 72.8 µM | NCI-H23 > 100 µM | 786-0 > 100 µM | K562 73.8 µM | A549 83.4 µM

C=CC1=C(C)c2cc3[nH]c(c4c5nc(cc6[nH]c(cc1n2)c(C=O)c6CC)C(C)=C5C(=O)[C@@H]4C(=O)OC)[C@@H](CCC(=O)O)[C@@H]3C
inactive: Hs-578T > 100 µM | SW-620 66.5 µM | SN12C > 100 µM | MCF7 > 100 µM | OVCAR-8 53.3 µM | SK-MEL-28 > 100 µM | PC-3 63.4 µM | UACC-257 83.9 µM | NCI-H226 > 100 µM | MOLT-4 43.6 µM | KM12 21.5 µM | RXF 393 1.79 µM | SNB-19 > 100 µM | SK-MEL-2 > 100 µM | NCI-H522 30.8 µM | NCI-H23 24.7 µM | 786-0 > 100 µM | K562 51.3 µM | A549 > 100 µM

O=C(O[C@@H](/C=C/c1ccccc1)P1(=O)N(Cc2ccccc2)[C@@H]2CCCC[C@H]2N1Cc1ccccc1)c1ccccc1
inactive: Hs-578T 8.89 µM | SW-620 3.66 µM | SN12C 3.18 µM | MCF7 3.59 µM | OVCAR-8 3.63 µM | SK-MEL-28 6.92 µM | PC-3 3.31 µM | RPMI-8226 2 µM | UACC-257 8.75 µM | NCI-H226 2.58 µM | KM12 2.83 µM | SNB-19 4.54 µM | SK-MEL-2 2.38 µM | NCI-H522 4.54 µM | NCI-H23 2.64 µM | 786-0 3.89 µM | K562 3.25 µM | A549 3.07 µM

C/C(=N/OC(=O)c1cccc2c(=O)c3ccccc3[nH]c12)[C@H]1CC[C@H]2[C@@H]3CCC4=C/C(=N/OC(=O)c5cccc6c(=O)c7ccccc7[nH]c56)CC[C@]4(C)[C@H]3CC[C@]12C
inactive: Hs-578T 27.7 µM | SW-620 13.9 µM | SN12C 14.7 µM | MCF7 11.2 µM | OVCAR-8 15.7 µM | PC-3 10.5 µM | RPMI-8226 2.9 µM | UACC-257 17.1 µM | NCI-H226 20 µM | MOLT-4 10.4 µM | KM12 15.2 µM | SNB-19 18.2 µM | SK-MEL-2 12.8 µM | NCI-H522 12.3 µM | NCI-H23 15.5 µM | 786-0 18.5 µM | K562 4.97 µM | A549 25.6 µM

COCC1OC(N2C(=O)NC(=O)[C@@H]3C=C4CCCCC4=C[C@@H]32)C(OC)C1OC (some centres undefined)
inactive: Hs-578T 68.9 µM | SW-620 > 100 µM | SN12C > 100 µM | MCF7 > 100 µM | OVCAR-8 > 100 µM | SK-MEL-28 > 100 µM | PC-3 > 100 µM | RPMI-8226 > 100 µM | UACC-257 > 100 µM | NCI-H226 > 100 µM | MOLT-4 > 100 µM | KM12 > 100 µM | SNB-19 > 100 µM | SK-MEL-2 > 100 µM | NCI-H522 > 100 µM | 786-0 > 100 µM | K562 > 100 µM | A549 > 100 µM

Cc1oc2c(Cl)cc(O)c(Cl)c2c2cccc1-2
inactive: Hs-578T 34.8 µM | SW-620 32.5 µM | SN12C 25.9 µM | MCF7 9.73 µM | OVCAR-8 23.6 µM | SK-MEL-28 14.8 µM | PC-3 31.3 µM | RPMI-8226 10.4 µM | UACC-257 > 100 µM | NCI-H226 14.2 µM | KM12 17.7 µM | SNB-19 42.8 µM | SK-MEL-2 33.3 µM | NCI-H522 26.4 µM | NCI-H23 19.5 µM | 786-0 21.9 µM | K562 12.6 µM | A549 28.2 µM

O=P(O)(O)CC1OC(CO)C(O)C1O (centres undefined)
inactive: Hs-578T > 100 µM | SW-620 > 100 µM | SN12C > 100 µM | MCF7 > 100 µM | OVCAR-8 > 100 µM | SK-MEL-28 > 100 µM | PC-3 > 100 µM | UACC-257 > 100 µM | NCI-H226 > 100 µM | MOLT-4 > 100 µM | KM12 > 100 µM | RXF 393 > 100 µM | SNB-19 > 100 µM | SK-MEL-2 > 100 µM | NCI-H522 > 100 µM | NCI-H23 > 100 µM | 786-0 > 100 µM | K562 > 100 µM | A549 > 100 µM

Cc1cc2nnn(C3CCCO3)c2cc1C (centres undefined)
inactive: Hs-578T > 100 µM | SN12C > 100 µM | MCF7 > 100 µM | OVCAR-8 > 100 µM | PC-3 > 100 µM | UACC-257 > 100 µM | NCI-H226 > 100 µM | MOLT-4 > 100 µM | RXF 393 > 100 µM | SK-MEL-2 > 100 µM | NCI-H522 > 100 µM | NCI-H23 > 100 µM | 786-0 > 100 µM | K562 > 100 µM | A549 > 100 µM

CC(=O)c1ccc2c(c1)CC1(C2)Cc2cc3c(cc2C1=O)CCC3 (centres undefined)
inactive: Hs-578T 27.6 µM | SW-620 32.6 µM | SN12C 16.7 µM | MCF7 20.8 µM | OVCAR-8 16.1 µM | SK-MEL-28 24.6 µM | PC-3 19.2 µM | RPMI-8226 11.1 µM | UACC-257 15 µM | MOLT-4 4.28 µM | KM12 17.5 µM | RXF 393 20.8 µM | SNB-19 58.9 µM | SK-MEL-2 21.7 µM | NCI-H522 22.7 µM | NCI-H23 21.5 µM | 786-0 19.3 µM | K562 16.5 µM | A549 20.9 µM

COc1cc(OC)c2c(C)cc(=O)oc2c1
inactive: Hs-578T 61.1 µM | SW-620 54.5 µM | SN12C 72.6 µM | MCF7 85.9 µM | OVCAR-8 55.7 µM | SK-MEL-28 > 100 µM | PC-3 > 100 µM | RPMI-8226 44.6 µM | UACC-257 93.8 µM | NCI-H226 41.5 µM | MOLT-4 82.6 µM | KM12 54.2 µM | SNB-19 > 100 µM | SK-MEL-2 > 100 µM | NCI-H23 64.4 µM | 786-0 52.6 µM | K562 45 µM | A549 55.7 µM
